In PubChem BioAssay AID1918958 (Molecular Pharmacology Branch, DTP, NCI, 2023):

Test system: NCI-H196 complex spheroid viability
Experiment: Anticancer human tumor NCI-H196 cell line growth inhibition [LSD1];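 also: spheroids exposed to agents for 7 days before readout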;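 as to viability, T/C: 100% = DMSO vehicle control viability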
Conditions: for IC50: curve of first compound; for viability, T/C: stronger effect = lower value
Method in brief: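 Multicellular complex spheroids of tumor cells with human endothelial cells (HUVEC) and mesenchymal stem cells; the LSD1 inhibitor iadademstat was combined with standard-of-care or investigational agents. Top concentration at or near clinical Cmax, half-log dilutions; final DMSO ≤0.25%.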

[1] = second compound 0.1 µM, first compound 0.0316 µM
[2] = second compound 0.1 µM, first compound 0.1 µM
[3] = second compound 0.1 µM, first compound 0.316 µM
[4] = second compound 0.1 µM, first compound 1 µM
[5] = second compound 0.316 µM, first compound 0.0316 µM
[6] = second compound 0.316 µM, first compound 0.1 µM
[7] = second compound 0.316 µM, first compound 0.316 µM
[8] = second compound 0.316 µM, first compound 1 µM
[9] = second compound 1 µM, first compound 0.0316 µM
[10] = second compound 1 µM, first compound 0.1 µM
[11] = second compound 1 µM, first compound 0.316 µM
[12] = second compound 1 µM, first compound 1 µM
[13] = second compound 3.16 µM, first compound 0.0316 µM
[14] = second compound 3.16 µM, first compound 0.1 µM
[15] = second compound 3.16 µM, first compound 0.316 µM
[16] = second compound 3.16 µM, first compound 1 µM
[17] = second compound 10 µM, first compound 0.0316 µM
[18] = second compound 10 µM, first compound 0.1 µM
[19] = second compound 10 µM, first compound 0.316 µM
[20] = second compound 10 µM, first compound 1 µM

Compound	IC50 (second compound 0.1 µM)	IC50 (second compound 0.316 µM)	IC50 (second compound 1 µM)	IC50 (second compound 3.16 µM)	IC50 (second compound 10 µM)	viability, T/C [1]	viability, T/C [2]	viability, T/C [3]	viability, T/C [4]	viability, T/C [5]	viability, T/C [6]	viability, T/C [7]	viability, T/C [8]	viability, T/C [9]	viability, T/C [10]	viability, T/C [11]	viability, T/C [12]	viability, T/C [13]	viability, T/C [14]	viability, T/C [15]	further results
O=C(c1cc(Cc2n[nH]c(=O)c3ccccc23)ccc1F)N1CCN(C(=O)C2CC2)CC1 + NC1CCC(NC2CC2c2ccccc2)CC1	> 10 µM	> 10 µM	> 10 µM	> 10 µM	> 10 µM	91.8%	97.9%	91.7%	86.5%	89.8%	103%	97.8%	94.8%	89.9%	91.4%	95.6%	83.5%	91%	87%	88%	viability, T/C (second compound 0.1 µM, first compound 3.16 µM): 93.5%; viability, T/C (second compound 0.1 µM, first compound 10 µM): 88.3%; viability, T/C (second compound 0.316 µM, first compound 3.16 µM): 83.4%; viability, T/C (second compound 0.316 µM, first compound 10 µM): 83%; viability, T/C (second compound 1 µM, first compound 3.16 µM): 89%; viability, T/C (second compound 1 µM, first compound 10 µM): 80.1%; viability, T/C [16]: 87.4%; viability, T/C (second compound 3.16 µM, first compound 3.16 µM): 85.7%; viability, T/C (second compound 3.16 µM, first compound 10 µM): 87.5%; viability, T/C [17]: 89.9%; viability, T/C [18]: 90.2%; viability, T/C [19]: 88.1%; viability, T/C [20]: 89.5%; viability, T/C (second compound 10 µM, first compound 3.16 µM): 85.7%; viability, T/C (second compound 10 µM, first compound 10 µM): 86.8%
COc1cc(Nc2ncc3c(n2)-c2ccc(Cl)cc2C(c2c(F)cccc2OC)=NC3)ccc1C(=O)O + NC1CCC(NC2CC2c2ccccc2)CC1	> 1 µM	> 1 µM	> 1 µM	> 1 µM	> 1 µM	122%	116%	134%	121%	112%	131%	123%	138%	102%	113%	126%	119%	110%	103%	128%	viability, T/C (second compound 0.1 µM, first compound 0.00316 µM): 94.8%; viability, T/C (second compound 0.1 µM, first compound 0.01 µM): 107%; viability, T/C (second compound 0.316 µM, first compound 0.00316 µM): 99.2%; viability, T/C (second compound 0.316 µM, first compound 0.01 µM): 103%; viability, T/C (second compound 1 µM, first compound 0.00316 µM): 94.4%; viability, T/C (second compound 1 µM, first compound 0.01 µM): 108%; viability, T/C (second compound 3.16 µM, first compound 0.00316 µM): 95.7%; viability, T/C (second compound 3.16 µM, first compound 0.01 µM): 105%; viability, T/C [16]: 126%; viability, T/C (second compound 10 µM, first compound 0.00316 µM): 92.2%; viability, T/C (second compound 10 µM, first compound 0.01 µM): 107%; viability, T/C [17]: 97.6%; viability, T/C [18]: 116%; viability, T/C [19]: 125%; viability, T/C [20]: 113%
